Laboratory results taken from patent US20240368150A1 (Hoffmann-La Roche Inc., priority 2021, published 2024).
Read-outs that look alike come from different tables or passages of the source.

What was measured:
hDGKzeta(1-928)-N-His = hDGKzeta(1-928)-N-His (Homo sapiens (Human), UniProt Q13574); experiment: DGKzeta ADP Glo assay (in vitro DGK inhibition); format: biochemical; details: DLG 125 uM, ATP 50 μM, DGK ζ 2 nM, 1 hour reaction
Protocol: (§1) DGK α and ζ kinase use ATP to phosphorylate the substrate 1,2-dilauroyl-sn-glycerol (DLG, incorporated in the liposomes). ATP is converted to ADP as a result of this enzymatic reaction. After the kinase reaction, an ATP-depletion reagent is added to terminate the kinase reaction and deplete any remaining ATP, leaving only ADP. Second, a detection reagent is added to simultaneously convert ADP to ATP and allow the newly synthesized ATP to be converted to light using a coupled luciferase/luciferin reaction.
(§2) Purification of both enzymes was performed as previously described by Takahashi et al., PeerJ, 2018 (Takahashi, D.; Sakane, F. Expression and purification of human diacylglycerol kinase alpha from baculovirus-infected insect cells for structural studies. PeerJ 2018, 6, No. e5449).
(§3) A concentrated liposome solution was prepared in assay buffer without DTT and BSA: 2 mM of DLG in 21 mM of total liposome (2 mM DLG/8 mM PS/11 mM PC). […] The reactions were started by addition of DGK α and ζ kinases at 4 nM and 2 nM final concentrations, respectively. After 1 hour reaction, the amount of ADP formed was detected with the ADP-Glo kinase assay (Promega) according to the manufacturer instructions. Compounds were added in 11-points dose response, starting at […], 1:3 dilutions, with a final DMSO concentration of 2%. The multidrop combi was used as a liquid handler and luminescence was read with 0.5 s by the envision reader (PE).

primary human T-cells [1] = system: primary human T-cells
primary human T-cells [2] = experiment: Proliferation assay after 5 days (CellTiter-Glo, CD3 stimulation; PBS counter screen); format: cell-based; details: Homo sapiens, T-cell, 120 h, CD3 stimulation; for Emax: 5 days, normalized to reference compound A1 as stimulator control = 100%, DMSO neutral control, read-out: Emax proliferation (% activation); for EC50: primary human T-cells, CellTiter-Glo after 5 days, EC50 of fitted sigmoidal curve, read-out: Tcell Proliferation CD3 EC50
In short: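 Read-out: CellTiter-Glo 2.0 luminescence (ATP ∝ cell number) at day 5 after compound addition. Compounds activating unstimulated cells or reducing viability flagged.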

hDGKalpha(1-735)-N-His = hDGKalpha(1-735)-N-His (Homo sapiens (Human), UniProt P23743); experiment: DGKalpha ADP Glo assay (in vitro DGK inhibition); format: biochemical; details: DLG 125 uM, ATP 25 μM, DGK α 4 nM, 1 hour reaction
Chain of hDGKalpha(1-735)-N-His (P23743 whole entry): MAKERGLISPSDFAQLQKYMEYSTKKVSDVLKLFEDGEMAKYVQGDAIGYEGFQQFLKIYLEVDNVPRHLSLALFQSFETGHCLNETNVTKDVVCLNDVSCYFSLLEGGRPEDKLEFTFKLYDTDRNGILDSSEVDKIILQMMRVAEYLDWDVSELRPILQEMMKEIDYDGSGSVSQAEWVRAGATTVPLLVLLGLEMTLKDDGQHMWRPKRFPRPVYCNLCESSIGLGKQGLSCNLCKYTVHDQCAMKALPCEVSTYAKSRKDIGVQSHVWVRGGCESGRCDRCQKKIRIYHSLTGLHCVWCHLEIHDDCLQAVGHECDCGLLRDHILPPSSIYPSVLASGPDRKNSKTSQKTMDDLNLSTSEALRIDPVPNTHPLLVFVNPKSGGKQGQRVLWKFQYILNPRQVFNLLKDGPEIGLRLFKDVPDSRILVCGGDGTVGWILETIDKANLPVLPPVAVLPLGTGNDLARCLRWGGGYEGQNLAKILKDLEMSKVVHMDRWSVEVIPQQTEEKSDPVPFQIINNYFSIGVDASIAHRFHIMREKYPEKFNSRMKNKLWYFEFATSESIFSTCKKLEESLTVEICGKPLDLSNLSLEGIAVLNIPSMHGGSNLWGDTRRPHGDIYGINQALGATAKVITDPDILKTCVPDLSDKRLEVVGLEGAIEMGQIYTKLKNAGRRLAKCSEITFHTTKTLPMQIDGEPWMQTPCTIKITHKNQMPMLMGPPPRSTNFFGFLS
Protocol: as §1, §2, §3

Chain of hDGKzeta(1-928)-N-His (Q13574 whole entry): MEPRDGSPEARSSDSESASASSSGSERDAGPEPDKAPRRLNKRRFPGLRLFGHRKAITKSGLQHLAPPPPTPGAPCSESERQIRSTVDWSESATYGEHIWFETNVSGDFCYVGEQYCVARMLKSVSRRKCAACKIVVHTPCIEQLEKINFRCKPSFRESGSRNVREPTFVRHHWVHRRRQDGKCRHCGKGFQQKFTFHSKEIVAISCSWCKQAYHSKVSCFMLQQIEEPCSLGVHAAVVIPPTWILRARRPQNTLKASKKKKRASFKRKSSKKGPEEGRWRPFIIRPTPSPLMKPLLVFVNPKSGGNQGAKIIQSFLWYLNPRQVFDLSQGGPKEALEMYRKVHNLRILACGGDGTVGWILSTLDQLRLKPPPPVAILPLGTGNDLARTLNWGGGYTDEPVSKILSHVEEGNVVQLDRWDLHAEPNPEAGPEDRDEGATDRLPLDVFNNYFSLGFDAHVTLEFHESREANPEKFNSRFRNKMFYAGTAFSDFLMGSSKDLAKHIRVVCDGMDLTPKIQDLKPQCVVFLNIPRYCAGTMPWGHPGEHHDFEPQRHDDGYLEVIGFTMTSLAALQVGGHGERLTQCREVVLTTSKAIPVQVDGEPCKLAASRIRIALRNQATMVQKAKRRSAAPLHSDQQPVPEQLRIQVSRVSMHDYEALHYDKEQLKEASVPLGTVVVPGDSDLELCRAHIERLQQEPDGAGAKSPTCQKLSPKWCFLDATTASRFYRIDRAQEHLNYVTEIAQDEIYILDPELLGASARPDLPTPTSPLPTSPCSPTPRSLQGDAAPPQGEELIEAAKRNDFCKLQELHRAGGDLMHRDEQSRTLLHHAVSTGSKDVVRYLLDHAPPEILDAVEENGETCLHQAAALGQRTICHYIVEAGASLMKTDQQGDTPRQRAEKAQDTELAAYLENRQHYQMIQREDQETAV

IC50 (hDGKzeta(1-928)-N-His) | EC50 (primary human T-cells [1]) | IC50 (hDGKalpha(1-735)-N-His) | Structure (SMILES) | Emax (primary human T-cells [2]) | EC50 (primary human T-cells [2])
481 nM | 243 nM | 3940 nM | N[C@H]1CS(=O)(=O)c2cc(F)c(-c3noc(C(N)(c4ccc(F)cc4)C(F)(F)F)n3)cc2N(Cc2ccc(Cl)cc2)C1=O (stereo partly drawn) [Example 300, (3R)-3-amino-7-[5-[1-amino-2,2,2-trifluoro-1-(4-fluorophenyl)ethyl]-1,2,4-oxadiazol-3-yl]-5-[(4-chlorophenyl)methyl]-8-fluoro-1,1-dioxo-2,3-dihydro-1λ^6,5-benzothiazepin-4-one] | 193% | 127 nM
69 nM | 5040 nM | 43700 nM | Cc1ccc(S(C)(=O)=O)cc1-c1nc(-c2cc3c(cc2F)S(=O)(=O)C[C@H](N)C(=O)N3Cc2ccc(Cl)cc2)no1 [Example 311, (3R)-3-amino-5-[(4-chlorophenyl)methyl]-8-fluoro-7-[5-(2-methyl-5-methylsulfonyl-phenyl)-1,2,4-oxadiazol-3-yl]-1,1-dioxo-2,3-dihydro-1λ^6,5-benzothiazepin-4-one] | 67% | 1090 nM
130 nM | 1120 nM | 1660 nM | Cc1cc(C)c(-c2nc(-c3cc4c(cc3F)S(=O)(=O)C[C@H](N)C(=O)N4Cc3ccc(Cl)cc3)no2)cn1 [Example 313, (3R)-3-amino-5-[(4-chlorophenyl)methyl]-7-[5-(4,6-dimethyl-3-pyridyl)-1,2,4-oxadiazol-3-yl]-8-fluoro-1,1-dioxo-2,3-dihydro-1λ^6,5-benzothiazepin-4-one] | 191% | 375 nM
150 nM | 234 nM | 6150 nM | Cc1cc(S(C)(=O)=O)ccc1-c1nc(-c2cc3c(cc2F)S(=O)(=O)C[C@H](N)C(=O)N3Cc2ccc(Cl)cc2)no1 [Example 314, (3R)-3-amino-5-[(4-chlorophenyl)methyl]-8-fluoro-7-[5-(2-methyl-4-methylsulfonyl-phenyl)-1,2,4-oxadiazol-3-yl]-1,1-dioxo-2,3-dihydro-1λ^6,5-benzothiazepin-4-one] | 78% | 155 nM
114 nM | 3000 nM | 403 nM | CC(C)(C)c1nc(-c2cc3c(cc2F)S(=O)(=O)C[C@H](N)C(=O)N3Cc2ccc(F)cc2)no1 [Example 357, (3R)-3-amino-7-(5-tert-butyl-1,2,4-oxadiazol-3-yl)-8-fluoro-5-[(4-fluorophenyl)methyl]-1,1-dioxo-2,3-dihydro-1λ^6,5-benzothiazepin-4-one] | 386% | 1140 nM
644 nM | 1160 nM | 1400 nM | N[C@H]1CS(=O)(=O)c2ccc(-c3nnc(C4CCCC(F)(F)C4)o3)cc2N(Cc2ccc(Cl)cc2)C1=O (stereo partly drawn) [Example 373, (3R)-3-amino-5-[(4-chlorophenyl)methyl]-7-[5-(3,3-difluorocyclohexyl)-1,3,4-oxadiazol-2-yl]-1,1-dioxo-2,3-dihydro-1λ^6,5-benzothiazepin-4-one] | 100% | 556 nM

Structure (SMILES) | IC50 (hDGKzeta(1-928)-N-His) | EC50 (primary human T-cells [1]) | IC50 (hDGKalpha(1-735)-N-His) | Emax (primary human T-cells [2]) | EC50 (primary human T-cells [2])
COC(=O)N1CCC(c2nc(-c3cc4c(cc3F)S(=O)(=O)C[C@H](N)C(=O)N4Cc3ccc(OC4CCCC4)cc3)no2)C1 (stereo partly drawn) [Example 348, methyl 3-[3-[(3R)-3-amino-5-[[4-(cyclopentoxy)phenyl]methyl]-8-fluoro-1,1,4-trioxo-2,3-dihydro-1λ^6,5-benzothiazepin-7-yl]-1,2,4-oxadiazol-5-yl]pyrrolidine-1-carboxylate] | 374 nM | 1710 nM | 2660 nM | 141% | 662 nM
CC(C)(C)c1nc(-c2cc3c(cc2F)S(=O)(=O)C[C@H](N)C(=O)N3Cc2ccc(OC3CCCC3)cc2)no1 [Example 350, (3R)-3-amino-7-(5-tert-butyl-1,2,4-oxadiazol-3-yl)-5-[[4-(cyclopentoxy)phenyl]methyl]-8-fluoro-1,1-dioxo-2,3-dihydro-1λ^6,5-benzothiazepin-4-one] | 235 nM | 312 nM | 1610 nM | 256% | 208 nM
